Experimental data: PMC2248166, “Quantitative peptide binding motifs for 19 human and mouse MHC class I molecules derived using positional scanning combinatorial peptide libraries” (Immunome Research, 2008)
Where a SMILES comes first, the peptide text is derived from it.

The compounds below were run against HLA B*0801 (Homo sapiens, UniProt P01889, A93T/A95T/D138N/E176V/E187T/K202T/Q94N/R180D/S35A/V36M/Y33D/Y91F) (assay: biochemical).
Assay type: binding
`CC[C@H](C)[C@H](NC(=O)[C@@H](N)CO)C(=O)N[C@@H](Cc1c[nH]cn1)C(=O)N[C@@H](CCC(=O)O)C(=O)N[C@@H](CCCCN)C(=O)N[C@@H](Cc1ccccc1)C(=O)N[C@@H](Cc1c[nH]c2ccccc12)C(=O)N1CCC[C@H]1C(=O)N[C@@H](CC(C)C)C(=O)O` [3102.0550] (H-SIHEKFWPL-OH) was tested, and the IC50 was 1.4 nM.
`CSCC[C@H](N)C(=O)N[C@@H](CC(C)C)C(=O)N[C@@H](CC(C)C)C(=O)N[C@@H](CCCCN)C(=O)N[C@@H](CCCCN)C(=O)N[C@@H](CC(C)C)C(=O)N[C@@H](CC(N)=O)C(=O)N[C@@H](CO)C(=O)N[C@@H](Cc1ccccc1)C(=O)O` [3102.0753] (H-MLLKKLNSF-OH) was tested, and the IC50 was 0.57 nM.
With `CC(C)C[C@H](NC(=O)[C@@H](N)CC(=O)O)C(=O)N[C@@H](CCCNC(=N)N)C(=O)N[C@@H](CCCNC(=N)N)C(=O)N[C@@H](CCCNC(=N)N)C(=O)N[C@@H](Cc1ccccc1)C(=O)N[C@@H](CC(=O)O)C(=O)N[C@H](C(=O)N[C@@H](Cc1ccccc1)C(=O)O)[C@@H](C)O` [3102.0667] (H-DLRRRFDTF-OH) the IC50 was 1.6 nM.
`CC(C)C[C@H](NC(=O)[C@@H](NC(=O)[C@H](CC(C)C)NC(=O)[C@H](CCCCN)NC(=O)[C@H](CCCNC(=N)N)NC(=O)[C@H](Cc1ccccc1)NC(=O)[C@H](Cc1ccccc1)NC(=O)[C@@H]1CCCN1C(=O)[C@@H](N)Cc1ccc(O)cc1)C(C)C)C(=O)O` [3102.0643] (H-YPFFRKLVL-OH) showed an IC50 of 5.9 nM.
With `CC[C@H](C)[C@H](NC(=O)[C@H](CC(N)=O)NC(=O)[C@H](CCCCN)NC(=O)[C@H](Cc1ccccc1)NC(=O)[C@H](CCCNC(=N)N)NC(=O)[C@H](CC(N)=O)NC(=O)[C@H](CCSC)NC(=O)[C@H](CC(C)C)NC(=O)[C@@H](N)Cc1ccc(O)cc1)C(=O)O` [3102.0642] (H-YLMNRFKNI-OH) the IC50 was 1.3 nM.
`CSCC[C@H](N)C(=O)N[C@@H](Cc1ccccc1)C(=O)NCC(=O)N[C@H](C(=O)N[C@@H](CCCNC(=N)N)C(=O)N[C@@H](CCCCN)C(=O)N[C@@H](CC(N)=O)C(=O)N[C@@H](CO)C(=O)N[C@@H](Cc1ccccc1)C(=O)O)[C@@H](C)O` [3102.0718] (H-MFGTRKNSF-OH) showed an IC50 of 2 nM.
With `CC[C@H](C)[C@H](NC(=O)[C@H](Cc1ccccc1)NC(=O)[C@H](CC(C)C)NC(=O)[C@@H](NC(=O)[C@H](CC(C)C)NC(=O)[C@H](Cc1ccccc1)NC(=O)[C@@H]1CCCN1C(=O)[C@@H](NC(=O)[C@@H](N)CC(C)C)[C@@H](C)CC)[C@@H](C)CC)C(=O)O` [3102.0791] (H-LIPFLILFI-OH) the IC50 was 50 nM.
Compound `CC[C@H](C)[C@H](NC(=O)[C@@H](NC(=O)[C@H](C)N)[C@@H](C)O)C(=O)N[C@@H](CCC(N)=O)C(=O)N[C@@H](CCCNC(=N)N)C(=O)N[C@@H](Cc1ccccc1)C(=O)N[C@@H](CO)C(=O)N[C@@H](CO)C(=O)N[C@@H](CC(C)C)C(=O)O` [3102.0756] (H-ATIQRFSSL-OH) has an IC50 of 3.3 nM.
`CC[C@H](C)[C@H](NC(=O)[C@H](C)N)C(=O)N[C@@H](CCCCN)C(=O)N[C@@H](CC(C)C)C(=O)NCC(=O)N[C@@H](Cc1ccccc1)C(=O)N[C@@H](CCCCN)C(=O)N[C@@H](CO)C(=O)N[C@@H](CC(C)C)C(=O)O` [3102.0664] (H-AIKLGFKSL-OH) gave an IC50 of 41 nM.
`CC[C@H](C)[C@H](NC(=O)[C@H](CCCNC(=N)N)NC(=O)[C@H](CCCNC(=N)N)NC(=O)[C@H](CCSC)NC(=O)[C@H](CC(C)C)NC(=O)[C@H](C)NC(=O)[C@@H](N)CC(N)=O)C(=O)N[C@@H](C)C(=O)N[C@H](C(=O)O)C(C)C` [3102.0577] (H-NALMRRIAV-OH) was tested, and the IC50 was 17 nM.
For `CC[C@H](C)[C@H](NC(=O)[C@@H]1CCCN1C(=O)[C@H](CCCCN)NC(=O)[C@@H](NC(=O)[C@H](CCCNC(=N)N)NC(=O)[C@H](CC(N)=O)NC(=O)[C@H](CCCNC(=N)N)NC(=O)[C@H](CCSC)NC(=O)[C@@H](N)CCSC)[C@@H](C)O)C(=O)O` [3102.0668] (H-MMRNRTKPI-OH), the IC50 was 1.5 nM.
`CC[C@H](C)[C@H](NC(=O)[C@@H](NC(=O)[C@H](CC(C)C)NC(=O)[C@H](Cc1ccccc1)NC(=O)[C@H](Cc1c[nH]cn1)NC(=O)[C@@H](NC(=O)[C@@H](NC(=O)[C@H](CCCCN)NC(=O)[C@@H](N)CCC(=O)O)[C@@H](C)CC)[C@@H](C)CC)[C@@H](C)O)C(=O)O` [3102.0618] (H-EKIIHFLTI-OH) was tested, and the IC50 was 5 nM.
`CSCC[C@H](NC(=O)[C@H](CC(N)=O)NC(=O)[C@@H](N)CCC(=O)O)C(=O)N[C@@H](CC(C)C)C(=O)N[C@@H](CCCNC(=N)N)C(=O)N[C@@H](CO)C(=O)N[C@@H](CCSC)C(=O)N1CCC[C@H]1C(=O)N[C@H](C(=O)O)C(C)C` [3102.0748] (H-ENMLRSMPV-OH) gave an IC50 of 0.21 nM.
`CC[C@H](C)[C@H](NC(=O)[C@H](Cc1ccc(O)cc1)NC(=O)[C@@H](NC(=O)[C@@H](N)CO)C(C)C)C(=O)N[C@@H](CCCNC(=N)N)C(=O)N1CCC[C@H]1C(=O)N[C@H](C(=O)N[C@@H](CO)C(=O)N[C@@H](CC(C)C)C(=O)O)[C@@H](C)O` [3102.0627] (H-SVYIRPTSL-OH) gave an IC50 of 11 nM.
Work on `CC(C)C[C@H](NC(=O)[C@H](CS)NC(=O)[C@H](CCC(=O)O)NC(=O)[C@H](CCCCN)NC(=O)[C@H](Cc1c[nH]cn1)NC(=O)[C@H](CC(C)C)NC(=O)[C@H](CCCNC(=N)N)NC(=O)[C@H](CC(N)=O)NC(=O)[C@@H](N)CCC(=O)O)C(=O)O` [3102.0562] (H-ENRLHKECL-OH) yielded an IC50 of 73 nM.
In the case of `CC[C@H](C)[C@H](NC(=O)[C@@H]1CCCN1C(=O)[C@H](CCCNC(=N)N)NC(=O)[C@H](Cc1c[nH]cn1)NC(=O)[C@H](CCCNC(=N)N)NC(=O)[C@H](CCCCN)NC(=O)[C@H](CC(N)=O)NC(=O)[C@@H](N)CO)C(=O)NCC(=O)O` [3102.0687] (H-SNKRHRPIG-OH), the IC50 is reported as 34 nM.
Compound `CC(C)C[C@H](NC(=O)[C@H](Cc1ccccc1)NC(=O)[C@H](CCC(=O)O)NC(=O)[C@H](Cc1ccccc1)NC(=O)[C@H](CCCCN)NC(=O)[C@H](CCCCN)NC(=O)[C@H](CC(C)C)NC(=O)[C@H](CC(C)C)NC(=O)CN)C(=O)O` [3102.0771] (H-GLLKKFEFL-OH) has an IC50 of 47 nM.
`CC[C@H](C)[C@H](NC(=O)[C@H](CCCCN)NC(=O)[C@H](Cc1c[nH]cn1)NC(=O)[C@H](CCCCN)NC(=O)[C@@H](NC(=O)[C@H](CCCCN)NC(=O)[C@H](CO)NC(=O)[C@@H](N)CCSC)[C@@H](C)CC)C(=O)N[C@@H](Cc1ccccc1)C(=O)O` [3102.0769] (H-MSKIKHKIF-OH) was tested, and the IC50 was 0.84 nM.
`CC(C)C[C@H](NC(=O)[C@@H]1CCCN1C(=O)[C@H](CS)NC(=O)[C@H](CCCNC(=N)N)NC(=O)[C@H](CCCNC(=N)N)NC(=O)[C@H](CCCNC(=N)N)NC(=O)[C@H](CC(C)C)NC(=O)[C@H](Cc1ccccc1)NC(=O)[C@@H](N)CC(C)C)C(=O)O` [3102.0764] (H-LFLRRRCPL-OH) gave an IC50 of 0.13 nM.
`N=C(N)NCCC[C@H](NC(=O)[C@H](CCCNC(=N)N)NC(=O)[C@@H](N)CC(=O)O)C(=O)N[C@@H](CO)C(=O)N[C@@H](Cc1ccccc1)C(=O)N[C@@H](Cc1ccccc1)C(=O)N[C@@H](CCCCN)C(=O)N[C@@H](CS)C(=O)N[C@@H](Cc1ccccc1)C(=O)O` [3102.0758] (H-DRRSFFKCF-OH) showed an IC50 of 76 nM.
For `CC[C@H](C)[C@H](NC(=O)[C@H](CCCNC(=N)N)NC(=O)[C@@H](N)CO)C(=O)N[C@@H](CO)C(=O)N[C@@H](CCCNC(=N)N)C(=O)N[C@@H](Cc1ccccc1)C(=O)N[C@@H](C)C(=O)N[C@@H](CC(N)=O)C(=O)N[C@@H](CC(C)C)C(=O)O` [3102.0622] (H-SRISRFANL-OH), the IC50 was 20 nM.
In the case of `CC[C@H](C)[C@H](NC(=O)[C@H](Cc1c[nH]cn1)NC(=O)[C@H](C)NC(=O)[C@H](Cc1ccc(O)cc1)NC(=O)[C@H](CC(C)C)NC(=O)[C@@H](N)CC(C)C)C(=O)N[C@@H](CC(N)=O)C(=O)N[C@@H](C)C(=O)N[C@@H](CC(C)C)C(=O)O` [3102.0757] (H-LLYAHINAL-OH), the IC50 is reported as 1.4 nM.
`CC[C@H](C)[C@H](NC(=O)[C@H](CCC(=O)O)NC(=O)[C@H](CCCNC(=N)N)NC(=O)[C@H](CC(C)C)NC(=O)[C@@H](N)CCC(=O)O)C(=O)N[C@@H](Cc1ccccc1)C(=O)N[C@@H](CCCNC(=N)N)C(=O)N[C@@H](CCCNC(=N)N)C(=O)N[C@@H](CC(C)C)C(=O)O` [3102.0772] (H-ELREIFRRL-OH) gave an IC50 of 27 nM.
Compound `CC[C@H](C)[C@H](N)C(=O)N[C@@H](CC(C)C)C(=O)N[C@@H](CCCNC(=N)N)C(=O)N[C@@H](CCCCN)C(=O)N[C@H](C(=O)N[C@@H](Cc1ccccc1)C(=O)N[C@@H](Cc1ccc(O)cc1)C(=O)N[C@@H](CO)C(=O)N[C@H](C(=O)O)C(C)C)[C@@H](C)CC` [3102.0538] (H-ILRKIFYSV-OH) has an IC50 of 0.1 nM.
Work on `CC[C@H](C)[C@H](NC(=O)[C@H](CCSC)NC(=O)[C@@H](NC(=O)[C@H](CCCCN)NC(=O)[C@H](CC(C)C)NC(=O)[C@@H](N)CO)[C@@H](C)CC)C(=O)N[C@@H](CCC(N)=O)C(=O)N[C@@H](CO)C(=O)N[C@@H](CCSC)C(=O)O` [3102.0631] (H-SLKIMIQSM-OH) yielded an IC50 of 2.5 nM.
`CC(C)C[C@H](NC(=O)[C@H](CCCNC(=N)N)NC(=O)[C@H](C)NC(=O)[C@H](CC(N)=O)NC(=O)[C@H](CCCNC(=N)N)NC(=O)[C@H](C)NC(=O)CNC(=O)[C@@H]1CCCN1C(=O)[C@@H](N)CC(N)=O)C(=O)O` [3102.0722] (H-NPGARNARL-OH) was tested, and the IC50 was 6.2 nM.
`CC[C@H](C)[C@H](NC(=O)[C@H](Cc1c[nH]cn1)NC(=O)[C@H](Cc1ccccc1)NC(=O)[C@H](CCCNC(=N)N)NC(=O)[C@@H](NC(=O)[C@@H](N)CO)[C@@H](C)CC)C(=O)N[C@@H](CCCCN)C(=O)N[C@@H](CCC(=O)O)C(=O)N[C@@H](CC(C)C)C(=O)O` [3102.0695] (H-SIRFHIKEL-OH) showed an IC50 of 0.45 nM.
With `CC[C@H](C)[C@H](NC(=O)[C@H](CCC(=O)O)NC(=O)[C@H](CCCNC(=N)N)NC(=O)[C@H](CC(C)C)NC(=O)[C@@H](N)CO)C(=O)N[C@@H](CO)C(=O)N[C@@H](CC(N)=O)C(=O)N[C@H](C(=O)N[C@H](C(=O)O)C(C)C)[C@@H](C)CC` [3102.0645] (H-SLREISNIV-OH) the IC50 was 10 nM.
`CC[C@H](C)[C@H](NC(=O)[C@H](CO)NC(=O)[C@H](CC(C)C)NC(=O)[C@H](CC(C)C)NC(=O)[C@H](CCCNC(=N)N)NC(=O)[C@H](CCSC)NC(=O)[C@H](CCC(=O)O)NC(=O)[C@H](C)NC(=O)[C@@H](N)CO)C(=O)O` [3102.0547] (H-SAEMRLLSI-OH) gave an IC50 of 21 nM.
